Data on five molecules can be found in ChEMBL document CHEMBL5620377, “Research progress of VEGFR small molecule inhibitors in ocular neovascular diseases” (Eur J Med Chem, 2023).

The nature of data set [1]: Inhibition of PDGFRbeta (561 to 1106 residues) (unknown origin). Also noted: species or system Homo sapiens.
Another data set concerns HUVEC. Put plainly: Inhibition of VEGF-induced HUVECs proliferation. The class given is functional, cell-based. The following applies: Homo sapiens.
Data set [2] can be described thus: Half life in human. The class given is ADME.
Data set [3] deals with T1, Vascular endothelial growth factor receptor 2 (Homo sapiens, UniProt P35968). Nature of the data set: Inhibition of VEGFR-2 (unknown origin).
T1 sequence (P35968 whole entry): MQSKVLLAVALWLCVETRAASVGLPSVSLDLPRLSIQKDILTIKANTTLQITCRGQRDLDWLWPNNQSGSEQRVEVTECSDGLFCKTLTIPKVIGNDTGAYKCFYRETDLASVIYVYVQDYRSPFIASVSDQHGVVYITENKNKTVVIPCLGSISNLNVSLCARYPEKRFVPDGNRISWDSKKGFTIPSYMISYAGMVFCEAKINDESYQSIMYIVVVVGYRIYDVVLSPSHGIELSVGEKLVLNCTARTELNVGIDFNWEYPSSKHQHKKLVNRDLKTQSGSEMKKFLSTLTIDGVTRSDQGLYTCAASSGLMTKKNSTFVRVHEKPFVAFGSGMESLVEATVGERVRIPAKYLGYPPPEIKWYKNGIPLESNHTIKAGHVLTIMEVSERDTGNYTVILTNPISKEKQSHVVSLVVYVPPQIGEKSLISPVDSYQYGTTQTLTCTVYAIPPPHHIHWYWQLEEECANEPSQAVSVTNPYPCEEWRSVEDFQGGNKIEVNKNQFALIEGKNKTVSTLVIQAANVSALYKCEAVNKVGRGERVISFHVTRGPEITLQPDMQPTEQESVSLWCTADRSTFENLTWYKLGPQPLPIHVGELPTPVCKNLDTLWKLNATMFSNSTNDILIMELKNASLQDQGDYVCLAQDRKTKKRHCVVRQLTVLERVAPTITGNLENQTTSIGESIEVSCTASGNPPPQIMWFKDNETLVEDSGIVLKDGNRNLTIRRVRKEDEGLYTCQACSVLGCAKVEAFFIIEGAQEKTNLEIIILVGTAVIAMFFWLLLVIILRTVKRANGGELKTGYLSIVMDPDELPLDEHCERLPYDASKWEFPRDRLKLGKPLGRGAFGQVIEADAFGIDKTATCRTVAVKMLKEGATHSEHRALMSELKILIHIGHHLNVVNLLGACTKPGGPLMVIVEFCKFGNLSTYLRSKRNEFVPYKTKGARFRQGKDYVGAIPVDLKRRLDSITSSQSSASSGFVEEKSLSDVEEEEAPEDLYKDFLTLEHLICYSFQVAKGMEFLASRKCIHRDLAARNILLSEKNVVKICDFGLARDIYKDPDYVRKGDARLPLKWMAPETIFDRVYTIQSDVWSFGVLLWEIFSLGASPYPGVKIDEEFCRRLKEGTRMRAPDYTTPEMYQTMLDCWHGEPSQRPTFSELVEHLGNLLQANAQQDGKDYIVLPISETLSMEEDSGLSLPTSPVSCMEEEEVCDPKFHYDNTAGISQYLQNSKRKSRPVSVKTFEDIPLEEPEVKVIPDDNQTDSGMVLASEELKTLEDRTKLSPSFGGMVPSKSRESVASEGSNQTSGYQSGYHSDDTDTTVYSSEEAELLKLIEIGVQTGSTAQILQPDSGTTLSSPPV
Data set [4] concerns the target T1, Vascular endothelial growth factor receptor 2. Nature of the data set: Inhibition of recombinant human VEGFR2 using Poly (Glu,Tyr) 4:1 as substrate incubated for 1 hr by ELISA. (An ELISA detects its analyte on a solid surface through an enzyme-linked reagent.)
Data set [5] addresses Platelet-derived growth factor receptor beta (Homo sapiens, UniProt P09619). Nature of the data set: Inhibition of recombinant human PDGFRbeta using Poly (Glu,Tyr) 4:1 as substrate incubated for 1 hr by ELISA.

A word on the IC50: it is the concentration at which inhibition is half-maximal. For orientation: half-life means the time in which the quantity being followed falls by half. A low value points to fast loss.

Molecules are shown by their SMILES.

Sequence of Platelet-derived growth factor receptor beta (P09619 whole entry): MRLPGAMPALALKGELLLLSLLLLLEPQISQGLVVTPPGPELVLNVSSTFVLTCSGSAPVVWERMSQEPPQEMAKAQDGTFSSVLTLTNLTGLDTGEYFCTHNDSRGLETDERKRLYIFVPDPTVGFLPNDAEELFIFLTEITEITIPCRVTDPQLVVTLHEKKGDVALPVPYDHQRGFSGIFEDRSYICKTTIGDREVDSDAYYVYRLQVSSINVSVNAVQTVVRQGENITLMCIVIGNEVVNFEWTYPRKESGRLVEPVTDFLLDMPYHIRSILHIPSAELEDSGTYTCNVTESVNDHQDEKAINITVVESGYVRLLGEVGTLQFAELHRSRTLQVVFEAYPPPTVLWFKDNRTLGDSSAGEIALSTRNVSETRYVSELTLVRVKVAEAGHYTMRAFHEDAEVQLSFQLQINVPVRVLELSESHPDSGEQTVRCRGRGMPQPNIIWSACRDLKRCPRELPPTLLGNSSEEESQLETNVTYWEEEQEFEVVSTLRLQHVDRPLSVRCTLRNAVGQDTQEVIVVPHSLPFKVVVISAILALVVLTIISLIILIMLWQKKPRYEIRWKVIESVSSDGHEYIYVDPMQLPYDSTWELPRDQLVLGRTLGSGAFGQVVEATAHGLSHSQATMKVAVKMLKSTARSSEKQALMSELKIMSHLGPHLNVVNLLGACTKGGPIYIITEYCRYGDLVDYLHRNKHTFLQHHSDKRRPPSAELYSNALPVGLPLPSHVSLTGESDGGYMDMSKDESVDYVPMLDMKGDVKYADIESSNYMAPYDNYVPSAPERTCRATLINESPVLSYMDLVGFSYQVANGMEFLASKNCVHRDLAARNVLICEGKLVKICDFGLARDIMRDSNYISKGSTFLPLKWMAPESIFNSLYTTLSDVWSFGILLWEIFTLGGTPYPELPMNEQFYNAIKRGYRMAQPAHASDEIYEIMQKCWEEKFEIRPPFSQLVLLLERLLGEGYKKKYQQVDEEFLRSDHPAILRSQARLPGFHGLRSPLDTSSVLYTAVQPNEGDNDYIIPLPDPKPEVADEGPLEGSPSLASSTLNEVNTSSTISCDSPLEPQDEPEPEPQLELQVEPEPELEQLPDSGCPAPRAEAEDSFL

Take `CNC(=O)c1cc(Oc2ccc(NC(=O)Nc3ccc(Cl)c(C(F)(F)F)c3)c(F)c2)ccn1` [REGORAFENIB]: in data set [1], 22 nM corresponded to half-maximal inhibition (IC50).

In the data set on HUVEC, `Cc1[nH]c(/C=C2\C(=O)Nc3ccc(F)cc32)c(C)c1C(=O)N[C@H]1CCN(C(=O)N(C)C)C1` [VOROLANIB] displayed a half-maximal inhibitory concentration (IC50) of 31.5 nM. The molecule also had a half-life in data set [2] of 6.5 h. For `COc1cc2c(Oc3ccc4[nH]c(C)cc4c3F)ccnc2cc1OCC1(N)CC1` [CATEQUENTINIB], the IC50 in data set [3] is under 1 nM; in data set [4], 0.2 nM; in data set [5], 115 nM. The molecule `C=C1C(=O)O[C@H]2C[C@H](C)C(/C=C/C(C)=O)=CC[C@H]12` yielded an IC50 in data set [3] of 380 nM. Take `CCN(CC)CCNC(=O)c1c(C)[nH]c(/C=C2\C(=O)Nc3ccc(F)cc32)c1C` [SUNITINIB]: in the data set with HUVEC, the IC50 amounted to 12 nM. This molecule registered a half-life in data set [2] of over 40 h.
